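Briefly, cells in 96-well plates were exposed to five compound concentrations for 48 h, and endpoints were estimated by linear interpolation. The concentration for full growth arrest is given as TGI.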
Key:
Assay in all cases: NCI-60 cell line screen, 48 h
MDA-MB-231 breast = tested on: MDA-MB-231 breast
CCRF-CEM leukemia = tested on: CCRF-CEM leukemia
A498 renal = tested on: A498 renal
HT29 colon = tested on: HT29 colon
A549 NSCLC = tested on: A549 NSCLC
UACC-62 melanoma = tested on: UACC-62 melanoma
OVCAR-5 ovarian = tested on: OVCAR-5 ovarian
UACC-257 melanoma = tested on: UACC-257 melanoma
CAKI-1 renal = tested on: CAKI-1 renal
HS 578T breast = tested on: HS 578T breast
M14 melanoma = tested on: M14 melanoma
HCT-15 colon = tested on: HCT-15 colon
MALME-3M melanoma = tested on: MALME-3M melanoma
SW-620 colon = tested on: SW-620 colon
HCT-116 colon = tested on: HCT-116 colon
SF-295 CNS = tested on: SF-295 CNS
HOP-62 NSCLC = tested on: HOP-62 NSCLC
SNB-19 CNS = tested on: SNB-19 CNS
KM12 colon = tested on: KM12 colon
EKVX NSCLC = tested on: EKVX NSCLC
NCI/ADR-RES ovarian = tested on: NCI/ADR-RES ovarian
NCI-H226 lung = tested on: NCI-H226 lung
DU-145 prostate = tested on: DU-145 prostate
NCI-H23 lung = tested on: NCI-H23 lung
HL-60(TB) leukemia = tested on: HL-60(TB) leukemia
RPMI-8226 leukemia = tested on: RPMI-8226 leukemia
UO-31 renal = tested on: UO-31 renal
LOX IMVI melanoma = tested on: LOX IMVI melanoma
IGROV1 ovarian = tested on: IGROV1 ovarian
SR leukemia = tested on: SR leukemia
T-47D breast = tested on: T-47D breast
ACHN renal = tested on: ACHN renal
SF-268 CNS = tested on: SF-268 CNS
SK-OV-3 ovarian = tested on: SK-OV-3 ovarian
MDA-N = tested on: MDA-N
COLO 205 colon = tested on: COLO 205 colon
SF-539 CNS = tested on: SF-539 CNS
U251 CNS = tested on: U251 CNS
SK-MEL-2 melanoma = tested on: SK-MEL-2 melanoma
SN12C renal = tested on: SN12C renal
RXF 393 renal = tested on: RXF 393 renal
PC-3 prostate = tested on: PC-3 prostate
NCI-H522 lung = tested on: NCI-H522 lung
SK-MEL-5 melanoma = tested on: SK-MEL-5 melanoma
HCC-2998 colon = tested on: HCC-2998 colon
MCF7 breast = tested on: MCF7 breast
SNB-75 CNS = tested on: SNB-75 CNS
OVCAR-8 ovarian = tested on: OVCAR-8 ovarian
786-0 renal = tested on: 786-0 renal
MDA-MB-435 = tested on: MDA-MB-435
SK-MEL-28 melanoma = tested on: SK-MEL-28 melanoma
MOLT-4 leukemia = tested on: MOLT-4 leukemia
TK-10 renal = tested on: TK-10 renal
OVCAR-4 ovarian = tested on: OVCAR-4 ovarian
BT-549 breast = tested on: BT-549 breast
OVCAR-3 ovarian = tested on: OVCAR-3 ovarian
HOP-92 NSCLC = tested on: HOP-92 NSCLC
NCI-H460 lung = tested on: NCI-H460 lung
K-562 leukemia = tested on: K-562 leukemia

In the case of `Cc1cc(O)c(C=O)c2c1C(=O)Oc1c(CO)c(O)c3c(c1O2)C(O)OC3=O` (stereo unspecified), the TGI (MDA-MB-231 breast) is reported as > 100 µM, the TGI (CCRF-CEM leukemia) is reported as > 100 µM and the TGI (A498 renal) is reported as > 100 µM. For the same compound, the TGI (HT29 colon) was > 100 µM, the TGI (A549 NSCLC) was > 100 µM and the TGI (UACC-62 melanoma) was > 100 µM. For the same compound, the TGI (OVCAR-5 ovarian) was > 100 µM, the TGI (UACC-257 melanoma) was > 100 µM and the TGI (CAKI-1 renal) was > 100 µM. The TGI (HS 578T breast) was > 100 µM, the TGI (M14 melanoma) was > 100 µM and the TGI (HCT-15 colon) was > 100 µM. For the same compound, the TGI (MALME-3M melanoma) was > 100 µM, the TGI (SW-620 colon) was > 100 µM and the TGI (HCT-116 colon) was > 100 µM. For the same compound, the TGI (SF-295 CNS) was > 100 µM, the TGI (HOP-62 NSCLC) was > 100 µM and the TGI (SNB-19 CNS) was > 100 µM. For the same compound, the TGI (KM12 colon) was > 100 µM, the TGI (EKVX NSCLC) was > 100 µM and the TGI (NCI/ADR-RES ovarian) was > 100 µM. For the same compound, the TGI (NCI-H226 lung) was > 100 µM, the TGI (DU-145 prostate) was > 100 µM and the TGI (NCI-H23 lung) was > 100 µM. The TGI (HL-60(TB) leukemia) was 79.2 µM, the TGI (RPMI-8226 leukemia) was 54.5 µM and the TGI (UO-31 renal) was > 100 µM. The TGI (LOX IMVI melanoma) was > 100 µM, the TGI (IGROV1 ovarian) was > 100 µM and the TGI (SR leukemia) was 66.2 µM. For the same compound, the TGI (T-47D breast) was > 100 µM, the TGI (ACHN renal) was > 100 µM and the TGI (SF-268 CNS) was > 100 µM. The TGI (SK-OV-3 ovarian) was > 100 µM, the TGI (MDA-N) was > 100 µM and the TGI (COLO 205 colon) was > 100 µM. The TGI (SF-539 CNS) was > 100 µM, the TGI (U251 CNS) was > 100 µM and the TGI (SK-MEL-2 melanoma) was > 100 µM. The TGI (SN12C renal) was > 100 µM, the TGI (RXF 393 renal) was > 100 µM and the TGI (PC-3 prostate) was > 100 µM. The TGI (NCI-H522 lung) was > 100 µM, the TGI (SK-MEL-5 melanoma) was > 100 µM and the TGI (HCC-2998 colon) was > 100 µM. For the same compound, the TGI (MCF7 breast) was > 100 µM, the TGI (SNB-75 CNS) was > 100 µM and the TGI (OVCAR-8 ovarian) was > 100 µM. For the same compound, the TGI (786-0 renal) was > 100 µM, the TGI (MDA-MB-435) was > 100 µM and the TGI (SK-MEL-28 melanoma) was > 100 µM. The TGI (MOLT-4 leukemia) was 94.1 µM, the TGI (TK-10 renal) was > 100 µM and the TGI (OVCAR-4 ovarian) was > 100 µM. For the same compound, the TGI (BT-549 breast) was > 100 µM, the TGI (OVCAR-3 ovarian) was > 100 µM and the TGI (HOP-92 NSCLC) was > 100 µM.
With `C/C(=N\O)c1ccc(Nc2nc3ccccc3c3occc23)cc1` the TGI (MDA-MB-231 breast) was 8.22 µM, the TGI (CCRF-CEM leukemia) was 27.7 µM and the TGI (A498 renal) was 37.8 µM. The TGI (HT29 colon) was 2.68 µM, the TGI (A549 NSCLC) was 34.8 µM and the TGI (UACC-62 melanoma) was 61 µM. The TGI (OVCAR-5 ovarian) was > 100 µM, the TGI (UACC-257 melanoma) was 48.2 µM and the TGI (NCI-H460 lung) was 4.34 µM. It also gave a TGI (CAKI-1 renal) of 7.28 µM, a TGI (HS 578T breast) of 53.3 µM and a TGI (M14 melanoma) of 22.4 µM. The TGI (HCT-15 colon) was 7.77 µM, the TGI (MALME-3M melanoma) was 61.3 µM and the TGI (HCT-116 colon) was 18 µM. For the same compound, the TGI (SF-295 CNS) was 11.1 µM, the TGI (HOP-62 NSCLC) was 27 µM and the TGI (SNB-19 CNS) was > 100 µM. For the same compound, the TGI (KM12 colon) was 20.8 µM, the TGI (EKVX NSCLC) was > 100 µM and the TGI (NCI/ADR-RES ovarian) was 47.8 µM. It also gave a TGI (NCI-H226 lung) of 10.8 µM, a TGI (DU-145 prostate) of 35.6 µM and a TGI (NCI-H23 lung) of 62.4 µM. For the same compound, the TGI (HL-60(TB) leukemia) was 8.49 µM, the TGI (RPMI-8226 leukemia) was 6.62 µM and the TGI (UO-31 renal) was > 100 µM. For the same compound, the TGI (LOX IMVI melanoma) was 32.8 µM, the TGI (IGROV1 ovarian) was 29.6 µM and the TGI (SR leukemia) was 5.07 µM. It also gave a TGI (T-47D breast) of 32.7 µM, a TGI (ACHN renal) of 47.7 µM and a TGI (K-562 leukemia) of 6.04 µM. The TGI (SF-268 CNS) was 39.9 µM, the TGI (SK-OV-3 ovarian) was 57.4 µM and the TGI (MDA-N) was 96.6 µM. For the same compound, the TGI (COLO 205 colon) was 20 µM, the TGI (SF-539 CNS) was 37.1 µM and the TGI (U251 CNS) was > 100 µM. It also gave a TGI (SK-MEL-2 melanoma) of 51.5 µM, a TGI (SN12C renal) of 56.3 µM and a TGI (PC-3 prostate) of 50.7 µM. It also gave a TGI (NCI-H522 lung) of 9.47 µM, a TGI (SK-MEL-5 melanoma) of 35.1 µM and a TGI (HCC-2998 colon) of 20.8 µM. The TGI (MCF7 breast) was 14.8 µM, the TGI (OVCAR-8 ovarian) was 54.7 µM and the TGI (786-0 renal) was 9.93 µM. The TGI (MDA-MB-435) was 44.9 µM, the TGI (MOLT-4 leukemia) was 13.6 µM and the TGI (TK-10 renal) was 7.63 µM. The TGI (BT-549 breast) was 53.1 µM, the TGI (OVCAR-3 ovarian) was > 100 µM and the TGI (HOP-92 NSCLC) was 52.4 µM.

Reference: PubChem BioAssay (NCI)
